Laboratory results taken from patent US20040259948A1, “Reciprocal regulation of inflammation and lipid metabolism by liver X receptors” (priority 2003, published 2004).

How the values were obtained:
[1] = system: Thioglycolate-elicited peritoneal macrophages; test: Macrophage response to E. coli infection: iNOS mRNA and NO production; type: cell-based, murine; details: 18 h, pretreated with 1 μM ligand
Experimental: Thioglycolate-elicited peritoneal macrophages were infected in vitro with Escherichia coli. After 18 hours, expression of inducible nitric oxide synthase (iNOS) mRNA and nitric oxide (NO) production were assessed. […] Cells were then infected with E. coli (A, B) or treated with 100 ng/ml LPS(C, D, E) as indicated. After 18 h, NO production was determined using a colorimetric assay (A, D), or mRNA levels were determined using real-time quantitative PCR assays (B, C, E).
Thioglycolate-elicited peritoneal macrophages were cultured in RPMI containing 10% fetal bovine serum (FBS). […] For ligand treatments, cells were in cultured medium supplemented with 5% lipoprotein-deficient serum (LPDS) and ligands for 18 h before stimulation. […] NO production was determined spectrophotometrically (Castrillo, A. et al. 2000 Mol Cell Biol 20:1692-1698).
Total RNA was extracted using Trizol reagent (Life Technologies, Inc.). […] Real-time quantitative PCR (TaqMan) analysis was performed using an Applied Biosystems 7700 sequence detector.

[2] = system: Thioglycolate-elicited peritoneal macrophages; test: DNA microarray analysis of LPS-activated macrophages; type: cell-based, mice; details: 2 μM 18 h, then 100 ng/ml LPS 6 h
Experimental: DNA microarrays were used to further examine the effect of LXR activation on LPS-induced gene transcription. […] Cells were harvested 6 hours after LPS stimulation and total RNA from these samples was used to probe Affymetrix U74Av2 arrays. The array data were analyzed using GeneSpring software to identify genes regulated by the ligand in the cells. […] Genes involved in inflammation or lipid metabolism were selected based on ligand-dependent changes in expression in the cells. […] DNA microarray analysis. […] Total RNA was reverse transcribed using a T7-(dT)24 primer (Genset Corp.). Biotin-labeled cRNA was generated using the Bioarray High Yield Transcript Labeling Kit (ENZO). Samples were hybridized to single Affymetrix Murine U74Av2 microarrays and visualized by the PAN Facility at Stanford University. Data was analyzed using GeneSpring and GeneChip Analysis Suite software (Affymetrix). Only those results determined by the software to represent significant expression differences in the presence or absence of ligand are presented. Positive results were defined as ligand-dependent changes in expression in wild-type cells.

[3] = system: atherosclerotic aortas of Apoe−/− mice; test: Gene expression in atherosclerotic aortas of Apoe−/− mice; type: in vivo; details: Apoe−/− mice 8 months of age, treated 3 days
Experimental: Next, the influence of LXR agonists on inflammatory gene expression induced by IL-1β and TNFα, which have been implicated in the pathogenesis of atherosclerosis, was tested. […] Gene expression was detected by real-time quantitative PCR assays. […] Total RNA was isolated from individual aortas and gene expression was measured by real-time quantitative PCR. P<0.05 for MMP-9 (*) and P<0.01 (**) for ABCA1. […] Thus, LXR agonist reduces expression of an established inflammatory mediator in the vessel wall. RNA and protein analysis. Total RNA was extracted using Trizol reagent (Life Technologies, Inc.). Northern blot analysis was carried out as described using radiolabeled cDNA probes (Tontonoz, P. et al. 1998 Cell 93:241-252). Real-time quantitative PCR (TaqMan) analysis was performed using an Applied Biosystems 7700 sequence detector. Two-step real-time PCR was performed as described (Joseph, S. B. et al. 2002 J Biol Chem 277:11019-11025). The primers and probes used are as follows: Animals. Mice on a mixed background (C57B1/6 and 129v) and Apoe^−/− mice on a C57B1/6 background were maintained on standard chow. […] Irritant contact dermatitis was induced as described (Sheu, M. Y. et al. 2002 J Invest Dermatol 118:94-101). Briefly, 10 μl of 0.03% 12-O-tetradecanoylphorbol-13-acetate (TPA) in acetone was applied to the left ears of male mice. The right ears were treated with vehicle alone. […] After 18 h of TPA treatment, the thickness and weight of 6-mm punch biopsies were determined. Statistical analysis was performed using Student's t-test. Experiments were conducted in accordance of the Animal Research Committee of the University of California, Los Angeles.

[4] = system: human smooth muscle cells; test: TNF-induced gene expression in human smooth muscle cells; type: cell-based; details: TNF 6 hours; real time qPCR
Experimental: Activation of LXR by synthetic ligands inhibits inflammatory gene expression in multiple human cell types (FIG. 7A-C). TNFα plays a role in the induction of inflammatory mediators in during inflammation. Cells were treated for 6 hours with TNF as indicated and gene expression was measured by real time qPCR.

O=C(O)Cc1cccc(OCCCN(Cc2cccc(C(F)(F)F)c2Cl)CC(c2ccccc2)c2ccccc2)c1 [GW3965]
iNOS activity (NO / nitrite production) ([1]; colorimetric assay): reduced | iNOS mRNA ([1]; real-time quantitative PCR): significantly reduced | expression of cluster of genes of macrophage innate immune response (iNOS, COX-2, IL-6, IL-1β, G-CSF, MCP-1, MCP-3, MIP-1β, IP-10, MMP-9) [2]: inhibited | expression of genes involved in lipid metabolism (incl. Abca1) [2]: most highly induced | expression of genes involved in other cellular processes [2]: not significantly altered | Change: Apoptosis inhibitor 2 ([2]; apoptosis gene): 1.10 | Change: Apoptosis inhibitor 3 ([2]; apoptosis gene): 0.83 | Change: Apoptosis signal-regulating kinase 1 ([2]; apoptosis gene): 0.99 | Change: Apoptosis-inducing factor AIF (Aif) ([2]; apoptosis gene): 0.83 | Change: Bc1-10 protein ([2]; apoptosis gene): 1.13 | Change: Bc12-associated X protein ([2]; apoptosis gene): 1.15 | Change: Bc12-like ([2]; apoptosis gene): 0.80 | Change: Bc12 homologous antagonist/killer ([2]; apoptosis gene): 0.94 | Change: Caspase 2 ([2]; apoptosis gene): 1.10 | Change: Caspase 3, apoptosis related cysteine protease ([2]; apoptosis gene): 1.40 | Change: Caspase 7 ([2]; apoptosis gene): 0.94 | Change: Caspase 9 ([2]; apoptosis gene): 0.79 | Change: Caspase 11 ([2]; apoptosis gene): 0.92 | Change: E1B 19 K/Bc1-2-binding protein homolog (Nip3) ([2]; apoptosis gene): 1.14 | Change: Avian reticuloendotheliosis viral (v-rel) oncogene related B ([2]; cell-cycle gene): 1.21 | Change: Cell division cycle 42 ([2]; cell-cycle gene): 1.06 | Change: Cyclin 1 ([2]; cell-cycle gene): 1.05 | Change: Cyclin B2 ([2]; cell-cycle gene): 0.68 | Change: Cyclin F ([2]; cell-cycle gene): 0.72 | Change: Cyclin G2 ([2]; cell-cycle gene): 0.83 | Change: Cyclin dependent kinase inhibitor 2B (Cdkn2b) ([2]; cell-cycle gene): 1.15 | Change: Cyclin-dependent kinase 5 ([2]; cell-cycle gene): 1.00 | Change: Cyclin-dependent kinase inhibitor 1A (P21) ([2]; cell-cycle gene): 0.85 | Change: Cyclin-dependent kinase inhibitor 1C (P57) ([2]; cell-cycle gene): 1.28 | Change: Early growth response 2 ([2]; cell-cycle gene): 0.96 | Change: Growth arrest specific 1 ([2]; cell-cycle gene): 0.91 | Change: Growth arrest specific 2 ([2]; cell-cycle gene): 0.92 | Change: Growth arrest specific 7 ([2]; cell-cycle gene): 1.22 | Change: Guanine Nucleotide Regulatory Protein ([2]; cell-cycle gene): 1.12 | Change: Met proto-oncogene ([2]; cell-cycle gene): 1.12 | Change: Proliferating cell nuclear antigen ([2]; cell-cycle gene): 1.13 | expression of ABCA1 in aorta ([3]; real-time quantitative PCR): induced | expression of macrophage-specific marker CD68 in aorta ([3]; real-time quantitative PCR): did not affect | expression of MCP-1 in aorta ([3]; versus vehicle): not different | expression of MMP-9 in aorta ([3]; versus vehicle): substantially reduced | expression of iNOS in aorta ([3]; versus vehicle): not different | TNF-induced gene expression [4]: inhibited
